The target in experiment [1] is T1, GST-pRbABC/E2F complex disrupted by 6×His-Ad5E1ACR1-3 (Homo sapiens, UniProt P06400).
T1 construct: made in house; host or cells: pRb: Sf9; E2F1 and E1A: E. coli BL21(DE3)
T1 sequence (P06400 376-928): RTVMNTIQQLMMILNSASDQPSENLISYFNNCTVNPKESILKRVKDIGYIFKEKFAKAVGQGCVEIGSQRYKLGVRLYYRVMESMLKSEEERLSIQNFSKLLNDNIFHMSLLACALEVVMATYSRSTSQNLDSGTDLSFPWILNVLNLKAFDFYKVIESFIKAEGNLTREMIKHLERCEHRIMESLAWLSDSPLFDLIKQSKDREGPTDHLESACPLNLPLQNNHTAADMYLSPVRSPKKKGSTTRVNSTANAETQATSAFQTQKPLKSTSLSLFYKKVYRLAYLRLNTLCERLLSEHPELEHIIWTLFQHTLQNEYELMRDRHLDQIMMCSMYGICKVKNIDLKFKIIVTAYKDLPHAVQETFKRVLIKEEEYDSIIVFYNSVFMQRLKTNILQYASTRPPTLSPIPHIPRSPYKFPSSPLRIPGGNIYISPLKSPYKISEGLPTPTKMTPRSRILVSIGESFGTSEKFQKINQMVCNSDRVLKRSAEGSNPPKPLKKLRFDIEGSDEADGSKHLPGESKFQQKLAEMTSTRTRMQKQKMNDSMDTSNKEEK
T1 sequence (Q01094 243-437 partner limits assumed): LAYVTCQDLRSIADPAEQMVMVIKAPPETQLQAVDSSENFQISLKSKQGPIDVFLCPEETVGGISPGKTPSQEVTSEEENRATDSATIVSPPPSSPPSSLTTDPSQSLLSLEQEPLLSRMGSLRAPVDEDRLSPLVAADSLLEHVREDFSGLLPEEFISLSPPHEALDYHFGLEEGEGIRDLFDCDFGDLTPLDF
The experiment in a line: ELISA: inhibition of adenovirus E1A-mediated disruption of pRb/E2F complexes. As to conditions: E2F remaining bound to pRb; 100 nM E1A. It counts as binding. Here is the method: Since HPV-E7 mediates high affinity pRb binding through the association of its L×C×E motif in CR2 to the B domain of pRb, the ability of the thiadiazolidinedione compounds to inhibit the ability of other L×C×E containing viral oncoproteins from disrupting E2F/pRb complexes was tested. The other L×C×E containing viral oncoproteins tested included HPV-E7 from a low risk HPV form (type 1A) and Adenovirus E1A proteins.
A similar ELISA assay was used to assess the ability of the compounds to inhibit the ability of HPV16-E7-mediated disruption of E2F/pRb complexes. For these studies, 6×His-HPV1AE7CR2-3 and 6×His-Ad5E1ACR1-3, containing the L×C×E motif, were employed. The assay described above was modified in such a way that GST-pRbABC alone was added to HPV-E7CR2-3+ compound, HPV-E7CR2-3+DMSO, Ad5-E1ACR1-3+ compound, or Ad5-E1ACR1-3 DMSO. Mouse monoclonal anti-His antibody (Fisher) diluted 1:10,000 was used to detect how much His-E7CR2-3 remained bound to GST-pRbABC on the plate. Mouse monoclonal Ad5-E1A antibody (Abeam) diluted 1:10,000 was used to detect how much E1ACR1-3 remained bound to GST-pRbABC on the plate. All other steps remained unchanged.

In a further experiment the test system is SiHa cells. The experiment in a line: Cell cycle and apoptosis in SiHa cells, propidium iodide flow cytometry and morphology. It counts as cell-based. As to conditions: 48 hours, 10 μM compound (staurosporine 2 μM); for % Apoptotic / % S: SiHa. Here is the method:
Since the thiadiazolin-3,5-dione compounds bind to pRb, data was generated regarding their effect in cells infected with HPV. […] DNA content was determined by propidium iodine staining and analysis by flow cytometry.
Cultured cell lines were seeded in 60 mm tissue culture dishes (Falcon) at 1×10^5 cells/well. […] Cells were then trypsinized, washed with phosphate-buffered saline (1.0 mL; PBS), and fixed in ethanol (80%) for 30 minutes on ice. Fixed cells were spun at 500 g for 5 minutes, rehydrated with PBS (1 mL), and spun again to remove any traces of ethanol. Cells were stained with propidium iodide (250 μL; PI), which was prepared by adding PI (100 μL, 2 mg/ml, Sigma) and RNase A (3.5 μL of 30 mg/ml, Sigma) into PBS (10 mL). Cells were then analyzed at the Wistar Institute Flow Cytometry Core Facility using standard equipment, reagents, and methodologies known in the art.
For orientation: Flow cytometry measures light scatter and fluorescence of single cells or particles in a stream.

Experiment [2] concerns the target T2, GST-pRbABC/6×His-HPV16-E7CR2-3 complex (Homo sapiens, UniProt P06400).
T2 construct: made in house; host or cells: pRb: Sf9; E7: E. coli BL21(DE3)
T2 sequence (P06400 376-928): T1 sequence (P06400 376-928)
The experiment in a line: ELISA: disruption of pRb/HPV16-E7 complex. The format is binding. As to conditions: disruption of pRb/viral oncoprotein complex; 500 nM 16E7. On the procedure:
An ELISA assay was utilized with modifications such that the amount of 6×His-HPV16-E7CR2-3 remaining bound to the partner protein on the plate could be measured. The compounds identified in Example 2 were purchased (Lankenau Institute for Medical Research) as powders. Their purity was verified by LC/MS and their structures by NMR. IC50 values were then measured for (i) the compounds identified in Example 1, (ii) the compounds prepared according to Examples 3-5, (iii) 2-phenyl-4-methyl-1,2,4-thiadiazolidin-3,5-dione (available from Molport, Latvia), and (iv) 4-benzyl-2-methyl-1,2,4-thiadiazolidin-3,5-dione (TDZD-8; Catalog No. T8325-5MG, Sigma) using the same ELISA-based assay as described for the high-throughput screen, except that the assay was performed manually in 96-well format and so all volumes used were double those from 384-well format.
All compounds were solubilized in DMSO (50 mM) and diluted for use in the ELISA-based assay at a final DMSO concentration of less than 5%. Ten-fold dilutions of thiadiazolin-3,5-dione compound (starting at 100 μM) were added to a mixture containing GST-pRbABC and 6×His-HPV16E7CR2-3. The amount of E7 remaining was determined by adding a primary anti-His antibody. The concentrations of the compounds in the IC50 experiment spanned the range of enzyme activity from no inhibition to complete inhibition. Three independent IC50 measurements were performed for each compound and the average and standard deviation values are reported. All data was imported into the GraphPad® Software (Prism) for IC50 determination. To calculate the IC50 values, the dose-response curves were fit to one-site (Hill slope=1) sigmoidal-dose-response curves.
(An ELISA detects its analyte on a solid surface through an enzyme-linked reagent.)

These results are taken from patent US9447060B2, “Small molecule modulators of pRb inactivation” (The Wistar Institute of Anatomy and Biology, priority 2011, dated 2016).

Regarding `Cc1ccccc1-n1sc(=O)n(C)c1=O` [Compound 3], half-maximal inhibition in experiment [1] (IC50) required 240 nM. Also, in the experiment with SiHa cells, the “effect on SiHa cells” value was “most drastically affected”, the “% Apoptotic” value stood at 6.5% and the “% S” value is 15.4%. Besides, the IC50 – broadly, the concentration at which inhibition is half-maximal – in experiment [2] was determined as 500 ± 1500 nM.
The like results for `Cc1cc(Cl)ccc1-n1sc(=O)n(C(C)C)c1=O` [Compound 4] were, in that order, 1300 ± 2200 nM, “most drastically affected”, 15.2%, 15.8% and 4500 ± 1500 nM.
